Legend:
KOPTK1 = assay: Annexin V apoptosis, KOPTK1; assay type: cell-based, human; conditions: 10 μM, 7 days
Procedure: FIGS. 6A-6D show 6-(4-Tert-Butylphenoxy)Pyridin-3-Amine (I3) induces G0/G1 cell cycle arrest and apoptosis in human T cell acute lymphoblastic leukemia cell lines and human breast cancer cell line HCC1187. […] Percentage of Annexin V positive (apoptotic) cell population was measured using flow cytometry.
To quantitate the percentage of apoptotic cells, AnnexinV and 7AAD staining was performed. Thymic cells were suspended in 300 μl of 1× AnnexinV binding buffer (BD Biosciences, San Diego, USA) and incubated with 10 μl of AnnexinV-Cy5 antibody and 10 μl of 7AAD (BD Biosciences, San Diego, USA). Samples were incubated for 15 minutes at room temperature. FACS was performed with in one hour of antibody staining.
This 6-(4-Tert-Butylphenoxy)Pyridin-3-Amine (I3) mediated proliferative arrest could be due to induction of apoptosis or cell cycle arrest during different phases of cell cycle. […] Therefore to further elucidate the mechanisms responsible for 6-(4-Tert-Butylphenoxy)Pyridin-3-Amine (I3) mediated proliferative arrest cell cycle and apoptosis analyses were carried out. […] To investigate cell death, Annexin V staining was performed and proportion of apoptotic (AnnexinV positive) cell population was determined by flow cytometry analyses after 7 days of treatment.

[1] = test system: Wnt signalling (β-catenin-TCF/LEF driven luciferase); assay: Wnt signalling TOP-luciferase assay in HeLa cells; assay type: cell-based; conditions: HeLa cells co-transfected with β-catenin and TOP-luciferase
Description: One of the concerns about the activity of the chemical compound 6-(4-Tert-Butylphenoxy)Pyridin-3-Amine (I3) is its specificity towards the Notch signalling pathway. In order to test whether 6-(4-Tert-Butylphenoxy)Pyridin-3-Amine (I3) could also block other developmental pathways, Applicants have tested its ability to block the Wnt and Hedgehog signalling pathways. In summary, to measure Wnt signalling, HeLa cells were transfected with a plasmid containing a promoter consisting of TCF/LEF binding sites and thereby driving the expression of a luciferase gene (TOP-luciferase). To activate the Wnt pathway, a plasmid encoding for β-catenin was co-transfected into HeLa cells. The co-transfected cells were incubated in the presence or absence of the 6-(4-Tert-Butylphenoxy)Pyridin-3-Amine (I3) chemical compound. Transient introduction of β-catenin leads to an upregulation of Wnt signalling as measured by β-catenin-TCF/LEF driven luciferase activity.

RPMI 8402 leukemic cells = assay: RPMI 8402 xenotransplantation in NOD/SCID γc−/− mice; assay type: in vivo, human
Procedure: FIGS. 8A-8B show 6-(4-Tert-Butylphenoxy)Pyridin-3-Amine (I3) treatment increases latency of leukemia development in mice. […] On day 15, leukemic cells were established in the bone marrow. Mice were treated with oil or 6-(4-Tert-Butylphenoxy)Pyridin-3-Amine (I3) for every day. Mice were imaged on day 27 using Caliper IVIS (Xenogen) live imaging system. Red and blue colour indicates the intensity of luciferase signal and correlates with the number of leukemic cells. […] NOD/SCID γc^−/− mice were transplanted with 5×10^5 RPMI 8402 (luciferase expressing) cells. Leukemia development was followed using Caliper IVIS (Xenogen) live imaging system. […]
The human leukemic cell lines RPMI 8402 and HPB ALL were transduced with a lentivirus containing luciferase gene constitutively expressed downstream of a CMV promoter. […] Mice were monitored for tumor development using Caliper IVIS (Xenogen) live imaging system. […]
Similarly in a preliminary experiment, NOD/SCID γc^−/− mice were transplanted with 5×10^5 RPMI 8402 cells and treated with oil or 6-(4-Tert-Butylphenoxy)Pyridin-3-Amine (I3) following the establishment of the disease. […] Since these animals were treated with the chemical compound 6-(4-Tert-Butylphenoxy)Pyridin-3-Amine (I3) for 27 days, the intestinal tissue was analyzed to detect any toxicity in the gut.

## CC(C)(C)c1ccc(Oc2ccc(N)cn2)cc1 [I3, 6-(4-Tert-Butylphenoxy)Pyridin-3-Amine]
KOPTK1
  apoptosis (Annexin V positive cells): induces significant apoptosis
[1]
  Wnt pathway activation: does not block the Wnt pathway activation
RPMI 8402 leukemic cells; 5×10^5 cells, daily treatment for 27 days after establishment of disease, preliminary experiment
  leukemia development (luciferase live imaging): blocks RPMI 8402 leukemic cell growth in xenotransplantation assay
RPMI 8402 leukemic cells; daily treatment for 27 days
  metastatic lesions in the liver (histology): did not develop any metastatic lesions in the liver

Source: patent US10054581B1, “Inhibitors of notch signaling pathway and use thereof in treatment of cancers” (Ecole Polytechnique Federale de Lausanne (EPFL), priority 2011, dated 2018)
